One test concerns the target Paired box protein Pax-8 (Homo sapiens, UniProt Q06710). As to the kind of experiment: inhibitors of PAX8-driven TPO luciferase reporter, dose response, RMG-I cells, cherry-pick (AID 687027).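 Note: luciferase reporter driven by Pax8 target thyroperoxidase promoter measured by SteadyGlo luminescence.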 The class given is functional, cell-based. On the technique in general: Reporter assays use an easily measured gene product as a stand-in for the process of interest.
Test [1] is described as follows: non-specific cell cytotoxicity, dose response, cytotoxicity control for PAX8 inhibitor project, plate reader, dry powder samples (AID 743021). The class given is functional, cell-based.
A short description of test [2]: NIH:OVCAR-3 ovarian cancer cell cytotoxicity, dose response, PAX8 inhibitor project, plate reader, dry powder samples (AID 743044). The class given is functional, cell-based.
Test [3] in a line: cytotoxicity in OVCAR8 ovarian cancer cells, dose response, PAX8 project, cell-based, plate reader, dry powder samples (AID 743197). The class given is functional. The note with it: OVCAR-8.
The target of test [4] is T1, Heat shock factor protein 1 (Mus musculus, UniProt P38532).
T1 sequence (P38532 whole entry): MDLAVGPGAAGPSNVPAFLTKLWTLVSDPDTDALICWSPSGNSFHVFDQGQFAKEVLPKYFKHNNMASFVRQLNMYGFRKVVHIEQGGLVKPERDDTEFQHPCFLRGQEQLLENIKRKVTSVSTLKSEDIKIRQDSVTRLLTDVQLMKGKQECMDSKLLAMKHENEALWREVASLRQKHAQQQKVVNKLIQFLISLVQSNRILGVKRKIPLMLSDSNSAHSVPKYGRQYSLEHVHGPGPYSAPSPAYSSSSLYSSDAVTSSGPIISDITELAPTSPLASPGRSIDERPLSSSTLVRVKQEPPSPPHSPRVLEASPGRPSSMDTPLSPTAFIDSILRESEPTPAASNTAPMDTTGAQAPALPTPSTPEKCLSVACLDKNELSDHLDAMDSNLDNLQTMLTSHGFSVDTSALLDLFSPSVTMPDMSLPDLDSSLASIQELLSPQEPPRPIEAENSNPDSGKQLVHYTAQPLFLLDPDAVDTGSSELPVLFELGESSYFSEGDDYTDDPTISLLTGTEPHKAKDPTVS
Put plainly: HSF1 potentiators in luciferase reporter cells, confirmation, cell-based, NIH3T3, luminescence, dose retest (AID 435004).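 Note: stress induced by proteasome inhibitor MG132 added 30 min after compound; luciferase reporter driven by HSF1 response element in NIH3T3 cells; actives raise luminescence as potentiators of the MG132 stress response.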 The class given is functional.

The nature of test [5]: cells. The class given is functional, cell-based.
Test [6] addresses T2, Trace amine-associated receptor 1 (Homo sapiens, UniProt Q96RJ0).
T2 sequence (Q96RJ0 whole entry): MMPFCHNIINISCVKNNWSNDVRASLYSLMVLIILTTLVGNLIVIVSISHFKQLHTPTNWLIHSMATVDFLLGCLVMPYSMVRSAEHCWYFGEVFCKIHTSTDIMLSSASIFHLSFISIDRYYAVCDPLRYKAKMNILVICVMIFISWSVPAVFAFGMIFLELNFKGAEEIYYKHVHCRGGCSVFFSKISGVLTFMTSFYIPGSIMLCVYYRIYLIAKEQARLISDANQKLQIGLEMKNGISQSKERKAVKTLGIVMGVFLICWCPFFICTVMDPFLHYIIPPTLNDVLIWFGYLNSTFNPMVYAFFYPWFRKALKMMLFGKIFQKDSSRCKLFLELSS
As to the kind of experiment: Fluorescence-based cell-based high throughput dose response assay to identify agonists of the human trace amine associated receptor 1 (TAAR1). The class given is functional.

Test [7] addresses T2, Trace amine-associated receptor 1. Put plainly: Counterscreen for agonists of the human trace amine associated receptor 1 (hTAAR1): Fluorescence-based cell-based high throughput dose response assay to identify hTAAR1 agonist that also desensitize TAAR1 receptor response. The class given is functional.
A short description of test [8]: cells. The class given is functional, cell-based. The source holds these as a separate data set.
The target of the next test is T3, fMet-Leu-Phe receptor (Homo sapiens, UniProt P21462).
T3 sequence (P21462 whole entry): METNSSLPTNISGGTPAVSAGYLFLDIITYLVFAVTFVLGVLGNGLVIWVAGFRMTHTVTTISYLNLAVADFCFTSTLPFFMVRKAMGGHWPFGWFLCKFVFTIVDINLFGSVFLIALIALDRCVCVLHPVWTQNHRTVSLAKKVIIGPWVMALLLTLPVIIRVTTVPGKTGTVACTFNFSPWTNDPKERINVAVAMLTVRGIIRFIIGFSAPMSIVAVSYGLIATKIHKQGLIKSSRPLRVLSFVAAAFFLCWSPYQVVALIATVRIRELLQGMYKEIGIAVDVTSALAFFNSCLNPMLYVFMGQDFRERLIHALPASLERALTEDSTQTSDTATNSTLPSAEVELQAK
As to the kind of experiment: FPR ligands, dose response (AID 519). The class given is functional.

In test [9] the target is T4, Histone-lysine N-methyltransferase NSD2 (Homo sapiens, UniProt O96028).
T4 sequence (O96028 whole entry): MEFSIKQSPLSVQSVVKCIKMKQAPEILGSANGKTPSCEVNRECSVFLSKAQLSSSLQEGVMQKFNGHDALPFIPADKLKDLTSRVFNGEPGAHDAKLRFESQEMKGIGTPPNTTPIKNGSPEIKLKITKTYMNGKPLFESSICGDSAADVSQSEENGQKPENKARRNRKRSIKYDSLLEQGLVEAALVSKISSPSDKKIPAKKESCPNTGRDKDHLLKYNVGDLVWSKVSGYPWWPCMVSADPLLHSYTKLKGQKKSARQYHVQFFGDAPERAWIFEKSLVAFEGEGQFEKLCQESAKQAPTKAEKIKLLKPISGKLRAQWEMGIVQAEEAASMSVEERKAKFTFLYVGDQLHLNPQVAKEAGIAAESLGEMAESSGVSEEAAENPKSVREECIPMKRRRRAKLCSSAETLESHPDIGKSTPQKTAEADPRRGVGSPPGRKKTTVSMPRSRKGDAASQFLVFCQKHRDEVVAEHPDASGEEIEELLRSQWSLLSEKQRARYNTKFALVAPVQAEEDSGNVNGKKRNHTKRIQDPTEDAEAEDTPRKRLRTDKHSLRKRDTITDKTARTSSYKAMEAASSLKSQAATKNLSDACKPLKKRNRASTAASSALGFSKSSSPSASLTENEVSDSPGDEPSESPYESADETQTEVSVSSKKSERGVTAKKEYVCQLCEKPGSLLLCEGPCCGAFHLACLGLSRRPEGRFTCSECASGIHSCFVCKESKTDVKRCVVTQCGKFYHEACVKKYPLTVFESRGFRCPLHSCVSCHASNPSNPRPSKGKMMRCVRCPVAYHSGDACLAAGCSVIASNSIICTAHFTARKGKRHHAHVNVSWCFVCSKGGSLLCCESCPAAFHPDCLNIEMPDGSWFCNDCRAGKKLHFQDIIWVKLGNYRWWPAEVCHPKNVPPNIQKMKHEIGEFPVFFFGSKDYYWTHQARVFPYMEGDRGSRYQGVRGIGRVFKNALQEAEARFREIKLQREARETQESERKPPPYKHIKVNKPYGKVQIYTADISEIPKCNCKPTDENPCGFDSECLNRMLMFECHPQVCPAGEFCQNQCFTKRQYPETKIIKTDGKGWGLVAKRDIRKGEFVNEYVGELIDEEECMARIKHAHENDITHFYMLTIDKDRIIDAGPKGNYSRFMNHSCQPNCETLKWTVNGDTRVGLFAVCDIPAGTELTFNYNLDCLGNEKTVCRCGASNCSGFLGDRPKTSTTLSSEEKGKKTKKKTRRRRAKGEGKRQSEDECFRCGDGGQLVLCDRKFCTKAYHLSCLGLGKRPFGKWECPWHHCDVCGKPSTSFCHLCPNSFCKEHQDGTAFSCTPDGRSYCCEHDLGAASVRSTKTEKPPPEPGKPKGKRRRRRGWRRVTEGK
The class given is biochemical.

Test [10] deals with T5, Tyrosyl-DNA phosphodiesterase 2 (Homo sapiens, UniProt O95551).
T5 sequence (O95551 whole entry): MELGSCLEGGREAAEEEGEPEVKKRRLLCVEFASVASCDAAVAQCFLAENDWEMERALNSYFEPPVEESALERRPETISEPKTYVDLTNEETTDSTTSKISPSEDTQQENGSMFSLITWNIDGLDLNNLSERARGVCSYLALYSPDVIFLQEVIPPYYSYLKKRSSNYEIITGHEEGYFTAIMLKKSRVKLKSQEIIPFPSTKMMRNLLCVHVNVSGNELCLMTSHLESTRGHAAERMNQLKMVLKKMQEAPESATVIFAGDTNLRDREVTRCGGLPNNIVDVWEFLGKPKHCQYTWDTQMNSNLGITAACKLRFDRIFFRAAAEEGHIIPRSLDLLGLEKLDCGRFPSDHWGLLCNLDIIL
As to the kind of experiment: human TDP2 enzyme inhibitors, dose response, biochemical, epi absorbance, IC50 (AID 743297).

Consider six compounds from ChEMBL document CHEMBL1201862, “PubChem BioAssay data set” (2004).

The structures appear in SMILES notation. Calls of active or inactive are those of the source.

Chain of Paired box protein Pax-8 (Q06710 whole entry): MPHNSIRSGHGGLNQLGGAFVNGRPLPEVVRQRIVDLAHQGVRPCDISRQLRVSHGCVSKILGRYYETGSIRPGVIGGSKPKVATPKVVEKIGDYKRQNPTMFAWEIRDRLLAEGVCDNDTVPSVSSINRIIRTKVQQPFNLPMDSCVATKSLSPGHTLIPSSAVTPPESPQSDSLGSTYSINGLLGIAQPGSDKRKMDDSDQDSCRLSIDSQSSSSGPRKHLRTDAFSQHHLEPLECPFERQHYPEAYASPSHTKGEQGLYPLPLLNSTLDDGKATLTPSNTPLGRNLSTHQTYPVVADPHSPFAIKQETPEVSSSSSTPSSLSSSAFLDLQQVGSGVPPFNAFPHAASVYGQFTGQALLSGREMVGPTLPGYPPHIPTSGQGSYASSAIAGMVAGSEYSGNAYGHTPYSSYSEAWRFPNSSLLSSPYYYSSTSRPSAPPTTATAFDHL

One may read the AC50 as the midpoint of the concentration-response curve, whichever way the signal moves. In the case of `C[C@@H]1CCCCO[C@H](CN(C)S(=O)(=O)c2ccc(F)cc2)[C@H](C)CN([C@@H](C)CO)C(=O)c2cc(NS(=O)(=O)c3ccc(Cl)cc3)ccc2O1`, the AC50 was 9.75 µM (active) on Paired box protein Pax-8 and 68.4 µM (active) in test [1].
For `C[C@H](CO)N1C[C@H](C)[C@H](CN(C)S(=O)(=O)c2ccc(Cl)cc2)Oc2c(NC(=O)Nc3ccc(F)cc3)cccc2C1=O`, the AC50 at Paired box protein Pax-8 is 10.2 µM (active); in test [2], 31.8 µM (active); in test [1], 51.4 µM (active); in test [3], 31.8 µM (active).
Broadly, the EC50 is the concentration at which the effect is half-maximal. A word on the IC50: it is the concentration that gives 50% inhibition. `O=C(CCN1CCc2ccccc2C(c2ccccc2)C1)c1ccc2c(c1)OCCO2` (stereo not given): the values for the EC50 (in [4]; in test [6]; in the test “cells [8]”) were > 260 µM (inactive), 4.51 µM (active) and > 29.9 µM (inactive), respectively. Also, the values for the IC50 (in the test “cells [5]”; in test [7]) were > 29.9 µM (inactive) and 9.28 µM (active), respectively.
One may read the Ki as the dissociation constant of the complex between target and ligand, obtained from inhibition or displacement. Regarding `COC(=O)Cc1n[nH]c2c1C(C1C=CCCC1)C(C#N)=C(N)O2` (stereo not given), the Ki on fMet-Leu-Phe receptor was > 66.7 µM (inactive).
Take `S=C(Nc1ccc2nsnc2c1)N1CCCCC1`: the AC50 in test [9] is 5.13 µM (active). The IC50 in test [10] is > 128 µM (inactive).
In the case of `C[N+]1(C)[C@@H]2C[C@@H](OC(=O)[C@H](CO)c3ccccc3)C[C@H]1[C@@H]1O[C@@H]12`, the Ki at fMet-Leu-Phe receptor was > 66.7 µM (inactive).
